Experimental data reported in article PMC5578959, “Selective LRRK2 kinase inhibition reduces phosphorylation of endogenous Rab10 and Rab12 in human peripheral mononuclear blood cells” (Scientific Reports, 2017).

How the values were obtained:
Assay in all cases: KiNativ profiling in human PBMCs
Type in all cases: binding
PIP4K2A = tested on: T1, PIP4K2A; conditions: ATP
T1 construct: purchased ActivX Technologies (KiNativ)
Experimental: (§1) Compounds were shipped to ActivX Technologies (San Diego, US) where LRRK2 target engagement and broad kinase profiling was performed using KiNativ™ procedures. Live cell treatment of human peripheral blood mononuclear cells (PBMCs) at two compound concentrations (1 µM and 0.1 µM) were used to evaluate and compare in vitro target engagement and kinase selectivity, respectively (see Supplementary File 1).

Wnk1,Wnk2,Wnk4 = conditions: Activation Loop
Experimental: as §1

[1] = tested on: CaMK2a,CaMK2b,CaMK2d,CaMK2g; conditions: Lys2
Experimental: as §1

STLK5 = tested on: T2, STLK5
T2 construct: purchased ActivX Technologies (KiNativ)
Experimental: as §1

MST1 = tested on: T3, MST1; conditions: Lys1
T3 construct: purchased ActivX Technologies (KiNativ)
Experimental: as §1

ABL,ARG = tested on: ABL,ARG
Experimental: as §1

PIK3CG = tested on: T4, PIK3CG; conditions: ATP
T4 construct: purchased ActivX Technologies (KiNativ)
Experimental: as §1

LATS1 = tested on: T5, LATS1
T5 construct: purchased ActivX Technologies (KiNativ)
Experimental: as §1

MLKL = tested on: T6, MLKL; conditions: Lys1
T6 construct: purchased ActivX Technologies (KiNativ)
Experimental: as §1

PIK3CB = tested on: T7, PIK3CB; conditions: ATP
T7 construct: purchased ActivX Technologies (KiNativ)
Experimental: as §1

IRAK1 = tested on: T8, IRAK1; conditions: Lys2
T8 construct: purchased ActivX Technologies (KiNativ)
Experimental: as §1

MAP3K5 = tested on: T9, MAP3K5; conditions: Lys2
T9 construct: purchased ActivX Technologies (KiNativ)
Experimental: as §1

IRAK4 = tested on: T10, IRAK4
T10 construct: purchased ActivX Technologies (KiNativ)
Experimental: as §1

Wnk1,Wnk2 = conditions: ATP Loop
Experimental: as §1

MAP2K1,MAP2K2 = conditions: Lys2
Experimental: as §1

PRPK = tested on: T11, PRPK; conditions: ATP Loop
T11 construct: purchased ActivX Technologies (KiNativ)
Experimental: as §1

IRE1 = tested on: T12, IRE1; conditions: Lys2
T12 construct: purchased ActivX Technologies (KiNativ)
Experimental: as §1

MST1,MST2 = conditions: Lys2
Experimental: as §1

NEK9 = tested on: T13, NEK9
T13 construct: purchased ActivX Technologies (KiNativ)
Experimental: as §1

PCTAIRE2 = tested on: T14, PCTAIRE2; conditions: Lys2
T14 construct: purchased ActivX Technologies (KiNativ)
Experimental: as §1

p38d,p38g = conditions: Lys2
Experimental: as §1

PYK2 = tested on: T15, PYK2
T15 construct: purchased ActivX Technologies (KiNativ)
Experimental: as §1

SLK = tested on: T16, SLK
T16 construct: purchased ActivX Technologies (KiNativ)
Experimental: as §1

MAP3K2,MAP3K3 = conditions: Lys2
Experimental: as §1

FES = tested on: T17, FES; conditions: Lys1
T17 construct: purchased ActivX Technologies (KiNativ)
Experimental: as §1

TAK1 = tested on: T18, TAK1; conditions: Lys2
T18 construct: purchased ActivX Technologies (KiNativ)
Experimental: as §1

GCN2 = tested on: T19, GCN2
T19 construct: purchased ActivX Technologies (KiNativ)
Experimental: as §1

MST2 = tested on: T20, MST2; conditions: Lys1
T20 construct: purchased ActivX Technologies (KiNativ)
Experimental: as §1

RSK1,RSK2,RSK3 domain1 = conditions: Lys2
Experimental: as §1

MAST3 = tested on: T21, MAST3; conditions: Lys2
T21 construct: purchased ActivX Technologies (KiNativ)
Experimental: as §1

RSK1 domain2 = tested on: T22, RSK1 domain2; conditions: Lys2
T22 construct: RSK1 domain2; purchased ActivX Technologies (KiNativ)
Experimental: as §1

HCK = tested on: T23, HCK
T23 construct: purchased ActivX Technologies (KiNativ)
Experimental: as §1

p70S6K = tested on: T24, p70S6K; conditions: Lys2
T24 construct: purchased ActivX Technologies (KiNativ)
Experimental: as §1

RSK3 domain1 = tested on: T25, RSK3 domain1; conditions: Lys2
T25 construct: RSK3 domain1; purchased ActivX Technologies (KiNativ)
Experimental: as §1

PCTAIRE1,PCTAIRE3 = conditions: Lys2
Experimental: as §1

ZAK = tested on: T26, ZAK; conditions: Lys1
T26 construct: purchased ActivX Technologies (KiNativ)
Experimental: as §1

AKT2,AKT3 = conditions: ATP Loop
Experimental: as §1

For Cn1cc(-c2c[nH]c3ncnc(N4CCOCC4)c23)cc1C#N [PFE-360], the “% Inhibition” value (PIP4K2A; 0.1µM, peptide AKELPTLKDNDFINEGQK) was -3.9%, the “% Inhibition” value (PIP4K2A; 0.1µM, peptide YIIKTITSEDVAEMHNILK) was -34.5% and the “% Inhibition” value (PIP4K2A; 1µM, peptide AKELPTLKDNDFINEGQK) was -16.3%. For the same molecule, the “% Inhibition” value (PIP4K2A; 1µM, peptide YIIKTITSEDVAEMHNILK) was -40%, the “% Inhibition” value (Wnk1,Wnk2,Wnk4; 0.1µM) was 4.7% and the “% Inhibition” value (Wnk1,Wnk2,Wnk4; 1µM) was 2.2%. For the same molecule, the “% Inhibition” value ([1]; 0.1µM) was 6.1%, the “% Inhibition” value ([1]; 1µM) was 1.2% and the “% Inhibition” value (STLK5; 0.1µM, Activation Loop) was -11%. For the same molecule, the “% Inhibition” value (STLK5; 0.1µM, Lys2) was 10.9%, the “% Inhibition” value (STLK5; 1µM, Activation Loop) was -2.2% and the “% Inhibition” value (STLK5; 1µM, Lys2) was -15.8%. For the same molecule, the “% Inhibition” value (MST1; 0.1µM) was 16.8%, the “% Inhibition” value (MST1; 1µM) was 34.1% and the “% Inhibition” value (ABL,ARG; 0.1µM, Activation Loop) was -15.2%. For the same molecule, the “% Inhibition” value (ABL,ARG; 0.1µM, Lys1) was -22.4%, the “% Inhibition” value (ABL,ARG; 1µM, Activation Loop) was -0.3% and the “% Inhibition” value (ABL,ARG; 1µM, Lys1) was 1.3%. The “% Inhibition” value (PIK3CG; 0.1µM) was -1.2%, the “% Inhibition” value (PIK3CG; 1µM) was -7% and the “% Inhibition” value (LATS1; 0.1µM, Lys1) was 5.2%. The “% Inhibition” value (LATS1; 0.1µM, Lys2) was 3.2%, the “% Inhibition” value (LATS1; 1µM, Lys1) was 0.9% and the “% Inhibition” value (LATS1; 1µM, Lys2) was 0.1%. For the same molecule, the “% Inhibition” value (MLKL; 0.1µM) was 2.3%, the “% Inhibition” value (MLKL; 1µM) was 5.2% and the “% Inhibition” value (PIK3CB; 0.1µM) was -27.2%. For the same molecule, the “% Inhibition” value (PIK3CB; 1µM) was 12.3%, the “% Inhibition” value (IRAK1; 0.1µM) was -6.1% and the “% Inhibition” value (IRAK1; 1µM) was -11.8%. The “% Inhibition” value (MAP3K5; 0.1µM) was 44.3%, the “% Inhibition” value (MAP3K5; 1µM) was 60.3% and the “% Inhibition” value (IRAK4; 0.1µM, Lys1) was 4.1%. The “% Inhibition” value (IRAK4; 0.1µM, Lys2) was 8%, the “% Inhibition” value (IRAK4; 1µM, Lys1) was -0.3% and the “% Inhibition” value (IRAK4; 1µM, Lys2) was 1.4%. For the same molecule, the “% Inhibition” value (Wnk1,Wnk2; 0.1µM) was -5.4%, the “% Inhibition” value (Wnk1,Wnk2; 1µM) was -15.3% and the “% Inhibition” value (MAP2K1,MAP2K2; 0.1µM) was 13.4%. The “% Inhibition” value (MAP2K1,MAP2K2; 1µM) was 12.9%, the “% Inhibition” value (PRPK; 0.1µM) was 2.6% and the “% Inhibition” value (PRPK; 1µM) was 8.1%. For the same molecule, the “% Inhibition” value (IRE1; 0.1µM) was -14.5%, the “% Inhibition” value (IRE1; 1µM) was 10.8% and the “% Inhibition” value (MST1,MST2; 0.1µM) was 15%. For the same molecule, the “% Inhibition” value (MST1,MST2; 1µM) was 39.1%, the “% Inhibition” value (NEK9; 0.1µM, Lys1) was -10.6% and the “% Inhibition” value (NEK9; 0.1µM, Lys2) was 8.9%. The “% Inhibition” value (NEK9; 1µM, Lys1) was -19.6%, the “% Inhibition” value (NEK9; 1µM, Lys2) was 5.7% and the “% Inhibition” value (PCTAIRE2; 0.1µM) was -2.4%. For the same molecule, the “% Inhibition” value (PCTAIRE2; 1µM) was -5.2%, the “% Inhibition” value (p38d,p38g; 0.1µM) was 0.8% and the “% Inhibition” value (p38d,p38g; 1µM) was -7.7%. The “% Inhibition” value (PYK2; 0.1µM, Activation Loop) was 8.4%, the “% Inhibition” value (PYK2; 0.1µM, Lys1) was 29.3% and the “% Inhibition” value (PYK2; 1µM, Activation Loop) was 7.1%. The “% Inhibition” value (PYK2; 1µM, Lys1) was -2.2%, the “% Inhibition” value (SLK; 0.1µM, Lys1) was 3.8% and the “% Inhibition” value (SLK; 0.1µM, Lys2) was 4.8%. The “% Inhibition” value (SLK; 1µM, Lys1) was 22.3%, the “% Inhibition” value (SLK; 1µM, Lys2) was -8.4% and the “% Inhibition” value (MAP3K2,MAP3K3; 0.1µM) was -2.6%. For the same molecule, the “% Inhibition” value (MAP3K2,MAP3K3; 1µM) was -12.9%, the “% Inhibition” value (FES; 0.1µM) was -0.3% and the “% Inhibition” value (FES; 1µM) was -5.7%. For the same molecule, the “% Inhibition” value (TAK1; 0.1µM) was -3.5%, the “% Inhibition” value (TAK1; 1µM) was -20% and the “% Inhibition” value (GCN2; 0.1µM, Lys1) was 3.5%. The “% Inhibition” value (GCN2; 0.1µM, Lys2) was -3.6%, the “% Inhibition” value (GCN2; 1µM, Lys1) was -13.3% and the “% Inhibition” value (GCN2; 1µM, Lys2) was 2.5%. The “% Inhibition” value (MST2; 0.1µM) was 15.1%, the “% Inhibition” value (MST2; 1µM) was 48% and the “% Inhibition” value (RSK1,RSK2,RSK3 domain1; 0.1µM) was 14.5%. The “% Inhibition” value (RSK1,RSK2,RSK3 domain1; 1µM) was 16.3%, the “% Inhibition” value (MAST3; 0.1µM) was 0.2% and the “% Inhibition” value (MAST3; 1µM) was -2.7%. For the same molecule, the “% Inhibition” value (RSK1 domain2; 0.1µM) was -5.4%, the “% Inhibition” value (RSK1 domain2; 1µM) was -11.2% and the “% Inhibition” value (HCK; 0.1µM, Activation Loop) was -0.8%. For the same molecule, the “% Inhibition” value (HCK; 0.1µM, Lys1) was -20.8%, the “% Inhibition” value (HCK; 1µM, Activation Loop) was -4.1% and the “% Inhibition” value (HCK; 1µM, Lys1) was 12.3%. For the same molecule, the “% Inhibition” value (p70S6K; 0.1µM) was -16.9%, the “% Inhibition” value (p70S6K; 1µM) was 8.5% and the “% Inhibition” value (RSK3 domain1; 0.1µM) was 5.5%. The “% Inhibition” value (RSK3 domain1; 1µM) was 8.1%, the “% Inhibition” value (PCTAIRE1,PCTAIRE3; 0.1µM) was 1.3% and the “% Inhibition” value (PCTAIRE1,PCTAIRE3; 1µM) was 11.4%. For the same molecule, the “% Inhibition” value (ZAK; 0.1µM) was -12.2%, the “% Inhibition” value (ZAK; 1µM) was -10.2% and the “% Inhibition” value (AKT2,AKT3; 0.1µM) was -2.2%. The “% Inhibition” value (AKT2,AKT3; 1µM) was -5.2%.
